Reference: ChEMBL document CHEMBL3044885, “Synthesis and fungicidal activity against Rhizoctonia solani of 2-alkyl (Alkylthio)-5-pyrazolyl-1,3,4-oxadiazoles (Thiadiazoles)” (2000)

Legend:
Rhizoctonia solani [1] = test: Fungicidal activity against Rhizoctonia solani inoculated on compound pre-treated fifth-leaf stage rice seedlings through foliar spraying assessed as inhibition of rice sheath blight disease at 100 ppm measured 4 days post fungal inoculation
Rhizoctonia solani [2] = test: Fungicidal activity against Rhizoctonia solani inoculated on compound pre-treated fifth-leaf stage rice seedlings through foliar spraying assessed as inhibition of rice sheath blight disease at 500 ppm measured 4 days post fungal inoculation

SMILES | inhibition at 100 ppm (Rhizoctonia solani [1]) | inhibition at 500 ppm (Rhizoctonia solani [2])
CCCCCCCCSc1nnc(-c2c(Cl)c(CC)nn2C)o1 | 50% | 50%
CCCCCSc1nnc(-c2cc(CC)nn2C)o1 | 0% | 50%
CCc1cc(-c2nnc(SC)o2)n(C)n1 | 50% | 90%
CCCSc1nnc(-c2c(Cl)c(CC)nn2C)o1 | 50% | 90%
CCc1nn(C)c(-c2nnc(CCl)o2)c1Cl | 50% | 90%
CCCSc1nnc(-c2c(Cl)c(CC)nn2C)s1 | 70% | 70%
CCc1nn(C)c(-c2n[nH]c(=O)o2)c1Cl | 0% | 0%
CCc1nnc(-c2c(Cl)c(CC)nn2C)o1 | 25% | 70%
CCOC(=O)C(C)Sc1nnc(-c2c(Cl)c(CC)nn2C)o1 (configuration not stated) | 0% | 0%
C=CCSc1nnc(-c2c(Cl)c(CC)nn2C)s1 | 25% | 50%
CCc1nn(C)c(-c2nnc(SC)o2)c1Cl | 70% | 90%
CCc1nn(C)c(-c2nnc(S)s2)c1Cl | 90% | 100%
CCSc1nnc(-c2cc(CC)nn2C)o1 | 50% | 90%
CCc1nn(C)c(-c2nnc(S)o2)c1Cl | 0% | 25%
COC(=O)Nc1nc2ccccc2[nH]1 [CARBENDAZIM] | 100% | 100%
CCCSc1nnc(-c2cc(CC)nn2C)o1 | 25% | 70%
CCc1nn(C)c(-c2nnc(SC)s2)c1Cl | 90% | 90%
CCOC(=O)C(C)Sc1nnc(-c2cc(CC)nn2C)o1 (configuration not stated) | 0% | 25%
CCc1nn(C)c(-c2nn(C)c(=O)o2)c1Cl | 0% | 25%
CCCCCSc1nnc(-c2c(Cl)c(CC)nn2C)s1 | 25% | 70%
CCCCCSc1nnc(-c2c(Cl)c(CC)nn2C)o1 | 25% | 70%
CCSc1nnc(-c2c(Cl)c(CC)nn2C)s1 | 90% | 90%
CCCCc1nnc(-c2c(Cl)c(CC)nn2C)o1 | 25% | 70%
CCc1cc(-c2nnc(S)o2)n(C)n1 | 25% | 50%
CCc1nn(C)c(-c2nnc(C(F)(F)F)o2)c1Cl | 25% | 70%
CCCCCCCSc1nnc(-c2c(Cl)c(CC)nn2C)o1 | 50% | 50%
